Tests used:
[1] = Displacement of [3H]2-BFI from imidazoline receptor I-2; parameters: species or system Rattus norvegicus
[2] = target: T1, Adrenergic receptor alpha-2 (Rattus norvegicus, UniProt P22086+P19328+P22909); assay: Displacement of [3H]RX-821002 from alpha-2 adrenergic receptor; assay type: protein assay
T1 sequence (P22086 whole entry): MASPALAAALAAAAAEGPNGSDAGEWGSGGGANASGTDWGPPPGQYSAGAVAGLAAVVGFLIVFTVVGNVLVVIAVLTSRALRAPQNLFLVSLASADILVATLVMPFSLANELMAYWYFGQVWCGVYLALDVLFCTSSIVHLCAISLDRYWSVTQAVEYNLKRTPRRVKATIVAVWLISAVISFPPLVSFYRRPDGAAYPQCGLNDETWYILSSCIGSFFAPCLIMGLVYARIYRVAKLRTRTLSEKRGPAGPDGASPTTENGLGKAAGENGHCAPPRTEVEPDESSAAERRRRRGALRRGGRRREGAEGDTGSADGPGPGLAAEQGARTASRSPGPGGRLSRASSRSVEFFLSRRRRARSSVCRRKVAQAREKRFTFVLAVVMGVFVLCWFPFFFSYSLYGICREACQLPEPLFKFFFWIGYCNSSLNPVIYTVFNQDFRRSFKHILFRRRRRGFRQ
T1 sequence (P19328 whole entry): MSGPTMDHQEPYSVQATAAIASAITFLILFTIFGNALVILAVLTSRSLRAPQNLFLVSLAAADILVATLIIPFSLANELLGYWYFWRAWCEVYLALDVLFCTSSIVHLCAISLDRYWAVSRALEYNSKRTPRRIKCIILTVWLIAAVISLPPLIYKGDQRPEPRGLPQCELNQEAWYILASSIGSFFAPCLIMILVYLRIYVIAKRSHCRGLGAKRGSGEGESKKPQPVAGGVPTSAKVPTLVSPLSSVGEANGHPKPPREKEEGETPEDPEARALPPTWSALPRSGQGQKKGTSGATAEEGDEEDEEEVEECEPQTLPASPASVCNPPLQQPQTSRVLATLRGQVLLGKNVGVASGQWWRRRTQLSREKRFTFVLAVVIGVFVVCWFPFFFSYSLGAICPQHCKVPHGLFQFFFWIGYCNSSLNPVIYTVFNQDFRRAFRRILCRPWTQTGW
T1 sequence (P22909 whole entry): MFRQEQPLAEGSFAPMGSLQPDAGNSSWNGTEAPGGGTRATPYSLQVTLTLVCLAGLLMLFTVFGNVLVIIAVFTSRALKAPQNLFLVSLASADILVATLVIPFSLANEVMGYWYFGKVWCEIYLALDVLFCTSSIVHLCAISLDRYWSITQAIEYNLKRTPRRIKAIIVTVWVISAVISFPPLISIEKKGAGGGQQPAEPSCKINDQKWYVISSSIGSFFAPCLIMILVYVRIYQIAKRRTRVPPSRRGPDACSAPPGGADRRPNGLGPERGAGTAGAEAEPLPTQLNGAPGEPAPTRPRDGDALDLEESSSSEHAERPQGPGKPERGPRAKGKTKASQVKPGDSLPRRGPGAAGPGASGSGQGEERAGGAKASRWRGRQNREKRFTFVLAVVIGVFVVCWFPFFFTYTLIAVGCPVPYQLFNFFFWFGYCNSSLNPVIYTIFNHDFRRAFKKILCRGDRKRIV

[3] = target: 5-hydroxytryptamine receptor 2A (Rattus norvegicus, UniProt P14842); assay: Binding affinity for 5-hydroxytryptamine 2A serotonin receptor
5-hydroxytryptamine receptor 2A, sequence (P14842 whole entry): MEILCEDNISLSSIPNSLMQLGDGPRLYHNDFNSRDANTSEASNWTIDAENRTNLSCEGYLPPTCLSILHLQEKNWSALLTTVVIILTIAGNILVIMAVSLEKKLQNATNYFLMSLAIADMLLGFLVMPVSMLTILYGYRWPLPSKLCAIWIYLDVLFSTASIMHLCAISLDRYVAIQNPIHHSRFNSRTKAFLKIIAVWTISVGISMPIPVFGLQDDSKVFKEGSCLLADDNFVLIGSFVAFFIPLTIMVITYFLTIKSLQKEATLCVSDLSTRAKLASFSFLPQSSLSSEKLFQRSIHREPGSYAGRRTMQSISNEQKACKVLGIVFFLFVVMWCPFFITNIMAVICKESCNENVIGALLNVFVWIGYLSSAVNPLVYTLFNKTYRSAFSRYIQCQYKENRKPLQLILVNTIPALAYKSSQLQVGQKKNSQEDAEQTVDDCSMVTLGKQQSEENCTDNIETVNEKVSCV

Compound	Ki [1] [µM]	Ki [2] [µM]	Ki [3] [µM]	IC50 [1] [µM]
COc1ccc2c3c([nH]c2c1)C=NCC3 [CGS-19281A]	0.018			
c1ccc2c3c([nH]c2c1)CNCC3 [TRYPTOLINE]	0.0094	1.6		
COc1ccc2[nH]c3c(c2c1)CCNC3	1.64			
c1ccc2c(c1)nc1n2CCNC1	6.79	13.4		
COc1ccc2c(c1)cc1n2CCNC1	0.0062	9.55	9.93	8.28
c1ccc2oc(C3=NCCN3)cc2c1	< 0.01			
c1ccc2c3c([nH]c2c1)C1=NCCN1CC3	9.91	1.6		
COc1ccc2[nH]c3c(c2c1)CCN=C3	0.48			
c1ccc2c(c1)cc1n2CCNC1	0.0065	0.516		
COc1ccc2cc3n(c2c1)CCNC3	0.25	4.51		
C1=NCCc2c1[nH]c1ccccc21	0.0073			
